Patent US20100267561A1, “HERBICIDAL PYRIDAZINONE DERIVATIVES” (priority 2007, published 2010)
Where two headings read alike, the source gives them in different places.

Experiments:
Test in all cases: Test B pre-/postemergence plant response
Format in all cases: in vivo
[1] = system: catchweed bedstraw (Galium aparine); settings: Preemergence
How it was run: (§1)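 Preemergence and postemergence (plants 2-18 cm, 1- to 4-leaf stage) applications used test chemicals in a non-phytotoxic solvent with surfactant. Plants were held in a greenhouse 13 to 15 days, then rated visually against controls on a 0-100 scale (0 no effect, 100 complete control).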

[2] = system: yellow nutsedge (Cyperus esculentus); settings: for pest or weed control at 31 g/ha / pest or weed control at 62 g/ha: Cyperus, read-out: Plant response rating, Nutsedge, Yellow; for pest or weed control at 31 g/ha: 31 g ai/ha; for pest or weed control at 62 g/ha: 62 g ai/ha, 100 complete control
How it was run: as §1

[3] = system: cocklebur (Xanthium strumarium); settings: for pest or weed control at 31 g/ha: 31 g ai/ha; for pest or weed control at 62 g/ha: 62 g ai/ha, 100 complete control
How it was run: as §1

[4] = system: common ragweed (Ambrosia elation); settings: for pest or weed control at 31 g/ha / pest or weed control at 62 g/ha: Ambrosia, read-out: Plant response rating, Ragweed; for pest or weed control at 31 g/ha: 31 g ai/ha; for pest or weed control at 62 g/ha: 62 g ai/ha, 100 complete control
How it was run: as §1

[5] = system: morningglory (Ipomoea coccinea); settings: for pest or weed control at 31 g/ha / pest or weed control at 62 g/ha: Ipomoea, read-out: Plant response rating, Morningglory; for pest or weed control at 31 g/ha: 31 g ai/ha; for pest or weed control at 62 g/ha: 62 g ai/ha, 100 complete control
How it was run: as §1

[6] = system: corn (Zea mays); settings: for Corn plant response rating (crop injury, 0 = no effect, 100 = complete kill) at 31 g/ha: 31 g ai/ha; for Corn plant response rating (crop injury, 0 = no effect, 100 = complete kill) at 62 g/ha: 62 g ai/ha, 100 complete control
How it was run: as §1

[7] = system: Italian ryegrass (Lolium multiflorum); settings: for pest or weed control at 31 g/ha / pest or weed control at 62 g/ha: Lolium multiflorum, read-out: Plant response rating, Ryegrass, Italian; for pest or weed control at 31 g/ha: 31 g ai/ha; for pest or weed control at 62 g/ha: 62 g ai/ha, 100 complete control
How it was run: as §1

[8] = system: lambsquarters (Chenopodium album); settings: for pest or weed control at 31 g/ha / pest or weed control at 62 g/ha: Chenopodium album, read-out: Plant response rating, Lambsquarters; for pest or weed control at 31 g/ha: 31 g ai/ha; for pest or weed control at 62 g/ha: 62 g ai/ha, 100 complete control
How it was run: as §1

[9] = system: eastern black (E.B.) nightshade (Solanum ptycanthum); settings: Preemergence
How it was run: as §1

[10] = system: surinam grass (Brachiaria decumbens); settings: for pest or weed control at 31 g/ha / pest or weed control at 62 g/ha: Urochloa decumbens, read-out: Plant response rating, Surinam Grass; for pest or weed control at 31 g/ha: 31 g ai/ha; for pest or weed control at 62 g/ha: 62 g ai/ha, 100 complete control
How it was run: as §1

[11] = system: wild oat (Avena fatua); settings: for pest or weed control at 31 g/ha / pest or weed control at 62 g/ha: Avena fatua, read-out: Plant response rating, Oat, Wild; for pest or weed control at 31 g/ha: 31 g ai/ha; for pest or weed control at 62 g/ha: 62 g ai/ha, 100 complete control
How it was run: as §1

[12] = system: Russian thistle (Salsola iberica); settings: Preemergence
How it was run: as §1

[13] = system: green foxtail (Setaria viridis); settings: for pest or weed control at 31 g/ha: 31 g ai/ha; for pest or weed control at 62 g/ha: 62 g ai/ha, 100 complete control
How it was run: as §1

[14] = 8 g ai/ha, scale 0 to 100 (0 no effect, 100 complete control)
[15] = 8 g ai/ha, postemergence, 0-100 scale
[16] = 16 g ai/ha, postemergence, 0-100 scale
[17] = post-emergence, Postemergence, scale 0 to 100
[18] = post-emergence, Postemergence, scale 0 to 100, 0 no effect
[19] = pre-emergence, Preemergence, scale 0 to 100 (0 no effect, 100 complete control)
[20] = pre-emergence, Preemergence, 0 to 100 scale, 0 no effect
[21] = Preemergence, 8 g ai/ha, scale 0 to 100 (0 no effect, 100 complete control)
[22] = Preemergence, 16 g ai/ha, scale 0 to 100

Cc1cc(-c2ccc(Br)cc2)nn1-c1c(OC(=O)C2CC2)cnn(C(=O)C2CC2)c1=O [Compound 80, 5-[3-(4-bromophenyl)-5-methyl-1H-pyrazol-1-yl]-1-(cyclopropylcarbonyl)-1,6-dihydro-6-oxo-4-pyridazinyl cyclopropanecarboxylate]
pest or weed control at 31 g/ha ([1]; Galium aparine, pre-emergence, 31 g ai/ha, scale 0 to 100 (0 no effect, 100 complete control), read-out: Plant response rating, Galium): 0% | pest or weed control at 62 g/ha ([1]; Galium aparine, pre-emergence, 62 g ai/ha, 0 to 100 scale, 0 no effect, 100 complete control, read-out: Plant response rating, Galium): 0% | Galium plant response rating [1, 14]: 0 | Galium plant response rating ([1]; 16 g ai/ha, scale 0 to 100): 0 | Nutsedge, Yellow plant response rating [2, 15]: 0 | Nutsedge, Yellow plant response rating [2, 16]: 0 | pest or weed control at 31 g/ha [2, 17]: 0% | pest or weed control at 62 g/ha [2, 18]: 0% | pest or weed control at 31 g/ha [2, 19]: 0% | pest or weed control at 62 g/ha [2, 20]: 100% | Nutsedge, Yellow plant response rating [2, 21]: 0 | Nutsedge, Yellow plant response rating [2, 22]: 0 | Cocklebur plant response rating [3, 15]: 0 | Cocklebur plant response rating [3, 21]: 0 | Cocklebur plant response rating [3, 22]: 0 | pest or weed control at 16 g/ha ([3]; Xanthium strumarium, post-emergence, Postemergence, 16 g ai/ha, scale 0 to 100, read-out: Plant response rating, Cocklebur): 0% | pest or weed control at 31 g/ha ([3]; Xanthium strumarium, post-emergence, Postemergence, scale 0 to 100, read-out: Plant response rating, Cocklebur): 0% | pest or weed control at 62 g/ha ([3]; Xanthium strumarium, post-emergence, Postemergence, scale 0 to 100, 0 no effect, read-out: Plant response rating, Cocklebur): 0% | pest or weed control at 31 g/ha ([3]; Xanthium strumarium, pre-emergence, Preemergence, scale 0 to 100 (0 no effect, 100 complete control), read-out: Plant response rating, Cocklebur): 0% | pest or weed control at 62 g/ha ([3]; Xanthium strumarium, pre-emergence, Preemergence, 0 to 100 scale, 0 no effect, read-out: Plant response rating, Cocklebur): 0% | Ragweed plant response rating [4, 15]: 0 | Ragweed plant response rating [4, 16]: 0 | pest or weed control at 31 g/ha [4, 17]: 0% | pest or weed control at 62 g/ha [4, 18]: 0% | pest or weed control at 31 g/ha [4, 19]: 0% | pest or weed control at 62 g/ha [4, 20]: 0% | Ragweed plant response rating [4, 21]: 0 | Ragweed plant response rating [4, 22]: 0 | Morningglory plant response rating [5, 15]: 0 | Morningglory plant response rating [5, 16]: 0 | pest or weed control at 31 g/ha [5, 17]: 0% | pest or weed control at 62 g/ha [5, 18]: 0% | pest or weed control at 31 g/ha [5, 19]: 0% | pest or weed control at 62 g/ha [5, 20]: 0% | Morningglory plant response rating [5, 21]: 0 | Morningglory plant response rating [5, 22]: 0 | Corn plant response rating [6, 15]: 100 | Corn plant response rating [6, 21]: 20 | Corn plant response rating [6, 22]: 85 | Corn plant response rating (crop injury, 0 = no effect, 100 = complete kill) at 16 g/ha ([6]; Zea mays, post-emergence, Postemergence, 16 g ai/ha, scale 0 to 100): 100% | Corn plant response rating (crop injury, 0 = no effect, 100 = complete kill) at 31 g/ha ([6]; Zea mays, post-emergence, Postemergence, scale 0 to 100): 100% | Corn plant response rating (crop injury, 0 = no effect, 100 = complete kill) at 62 g/ha ([6]; Zea mays, post-emergence, Postemergence, scale 0 to 100, 0 no effect): 100% | Corn plant response rating (crop injury, 0 = no effect, 100 = complete kill) at 31 g/ha ([6]; Zea mays, pre-emergence, Preemergence, scale 0 to 100 (0 no effect, 100 complete control)): 98% | Corn plant response rating (crop injury, 0 = no effect, 100 = complete kill) at 62 g/ha ([6]; Zea mays, pre-emergence, Preemergence, 0 to 100 scale, 0 no effect): 100% | Ryegrass, Italian plant response rating [7, 15]: 80 | Ryegrass, Italian plant response rating [7, 16]: 98 | pest or weed control at 31 g/ha [7, 17]: 100% | pest or weed control at 62 g/ha [7, 18]: 100% | pest or weed control at 31 g/ha [7, 19]: 40% | pest or weed control at 62 g/ha [7, 20]: 100% | Ryegrass, Italian plant response rating [7, 21]: 0 | Ryegrass, Italian plant response rating [7, 22]: 40 | Lambsquarters plant response rating [8, 15]: 0 | Lambsquarters plant response rating [8, 16]: 0 | pest or weed control at 31 g/ha [8, 17]: 0% | pest or weed control at 62 g/ha [8, 18]: 0% | pest or weed control at 31 g/ha [8, 19]: 0% | pest or weed control at 62 g/ha [8, 20]: 0% | Lambsquarters plant response rating [8, 21]: 0 | Lambsquarters plant response rating [8, 22]: 0 | Nightshade, E. B. plant response rating [9, 14]: 0 | pest or weed control at 31 g/ha ([9]; Solanum, pre-emergence, 31 g ai/ha, scale 0 to 100 (0 no effect, 100 complete control), read-out: Plant response rating, Nightshade, E. B.): 0% | pest or weed control at 62 g/ha ([9]; Solanum, pre-emergence, 62 g ai/ha, 0 to 100 scale, 0 no effect, 100 complete control, read-out: Plant response rating, Nightshade, E. B.): 0% | Surinam Grass plant response rating [10, 15]: 95 | Surinam Grass plant response rating [10, 16]: 100 | Surinam Grass plant response rating [10, 21]: 0 | Surinam Grass plant response rating [10, 22]: 65 | pest or weed control at 31 g/ha [10, 17]: 100% | pest or weed control at 62 g/ha [10, 18]: 100% | pest or weed control at 31 g/ha [10, 19]: 98% | pest or weed control at 62 g/ha [10, 20]: 100% | Oat, Wild plant response rating [11, 15]: 85 | Oat, Wild plant response rating [11, 16]: 100 | pest or weed control at 31 g/ha [11, 17]: 100% | pest or weed control at 62 g/ha [11, 18]: 100% | pest or weed control at 31 g/ha [11, 19]: 60% | pest or weed control at 62 g/ha [11, 20]: 70% | Oat, Wild plant response rating [11, 21]: 30 | Oat, Wild plant response rating [11, 22]: 40 | Russian Thistle plant response rating [12, 14]: 0 | Plant response rating, Russian Thistle ([12]; 31 g ai/ha, scale 0 to 100 (0 no effect, 100 complete control)): 0 | Plant response rating, Russian Thistle ([12]; 62 g ai/ha, 0 to 100 scale, 0 no effect, 100 complete control): 0 | Russian Thistle plant response rating ([12]; 16 g ai/ha, scale 0 to 100): 0 | Foxtail, Green plant response rating [13, 15]: 50 | Foxtail, Green plant response rating [13, 21]: 0 | Foxtail, Green plant response rating [13, 22]: 98 | pest or weed control at 16 g/ha ([13]; Setaria viridis, post-emergence, Postemergence, 16 g ai/ha, scale 0 to 100, read-out: Plant response rating, Foxtail, Green): 60% | pest or weed control at 31 g/ha ([13]; Setaria viridis, post-emergence, Postemergence, scale 0 to 100, read-out: Plant response rating, Foxtail, Green): 100% | pest or weed control at 62 g/ha ([13]; Setaria viridis, post-emergence, Postemergence, scale 0 to 100, 0 no effect, read-out: Plant response rating, Foxtail, Green): 100% | pest or weed control at 31 g/ha ([13]; Setaria viridis, pre-emergence, Preemergence, scale 0 to 100 (0 no effect, 100 complete control), read-out: Plant response rating, Foxtail, Green): 100% | pest or weed control at 62 g/ha ([13]; Setaria viridis, pre-emergence, Preemergence, 0 to 100 scale, 0 no effect, read-out: Plant response rating, Foxtail, Green): 100%
